The structures appear in SMILES notation.

Data on one molecule can be found in patent US7915402B2, “Antioxidant inflammation modulators: oleanolic acid derivatives with saturation in the C-ring” (Reata Pharmaceuticals, Inc., priority 2008, dated 2011).

This test concerns γ-glutamylcysteine synthetase (γ-GCS). The experiment in a line: Nrf2 target gene induction, γ-GCS mRNA (qPCR). It counts as cell-based, human. The following applies: MDA-MB-435 cells. The procedure: FIG. 21. Induction of HO-1, TrxR1 and γ-GCS. MDA-MB-435 human melanoma cells were treated with vehicle (DMSO) or the indicated compounds and concentrations for 16 hours. HO-1, thioredoxin reductase-1 (TrxR1), and γ-glutamylcysteine synthetase (γ-GCS) mRNA levels were quantified using qPCR and were normalized relative to a DMSO-treated sample run in parallel. Values are averages of duplicate wells.
FIG. 23. Induction of γ-GCS. MDA-MB-435 human melanoma cells were treated with vehicle (DMSO) or the indicated compounds and concentrations for 16 hours. γ-glutamylcysteine synthetase (γ-GCS) mRNA levels were quantified using qPCR and were normalized relative to a DMSO-treated sample run in parallel. Values are averages of duplicate wells.
Nrf2 target gene induction. MDA-MB-435 human melanoma cells were treated with vehicle (DMSO) or the indicated compounds and concentrations for 16 hours. HO-1, thioredoxin reductase-1 (TrxR1), γ-glutamylcysteine synthetase (γ-GCS), and ferritin heavy chain mRNA levels were quantified using qPCR and were normalized relative to a DMSO-treated sample run in parallel. Values are averages of duplicate wells. Primer sequences are as follows.
In general terms: Quantitative PCR measures a nucleic acid by following its amplification.

The molecule `CC1(C)CC[C@]2(C(=O)NCC(F)(F)F)CC[C@]3(C)[C@H](C(=O)C[C@@H]4[C@@]5(C)C=C(C#N)C(=O)C(C)(C)[C@@H]5CC[C@]43C)[C@@H]2C1` [Compound 63102, (4aS,6aR,6bR,8aR,12aR,12bR,14aR,14bS)-11-cyano-2,2,6a,6b,9,9,12a-heptamethyl-10,14-dioxo-N-(2,2,2-trifluoroethyl)-1,2,3,4,4a,5,6,6a,6b,7,8,8a,9,10,12a,12b,13,14,14a,14b-icosahydropicene-4a-carboxamide] gave a γ-GCS induction (250 nM, fold induction above DMSO control) of 4.5 fold. Moreover, the “γ-GCS mRNA induction: concentration needed compared with unsaturated counterpart (402, 404)” value (16 hours) is listed as “higher concentrations”.
